# Where two headings read alike, the source gives them in different places.
# Assays:
# [1] = cited from earlier work
# [2] = tested on: H2O2 level in Colo357 cell line; test: Measurement of H2O2 level in Colo357 cell line (FIG. 8A); format: cell-based; details: CPPD 20 μmol·L−1, Doxo 25 μmol·L−1
# Method: Intracellular H2O2 production in live cells was measured using Total ROS/superoxide detection kit (Enzo life science), following the manufacturer's instructions. The assay uses specific H2O2/RNS probes that upon reaction with H2O2 and RNS species are oxidized rapidly to highly fluorescent compounds. Fluorescence intensity is proportional to the total H2O2/RNS levels within the sample. […] The day before the analysis, cells were seeded in 96-well black/clear bottom plates at a density of 2×10^4 in culture media according to cell suppliers instructions, supplemented with FBS (10% v/v), 10 units of penicillin/ml and 100 mg of streptomycin. Cells were kept at 37° C. in a humid atmosphere of 95% air: 5% CO2 overnight. […] After the incubation period, wells were loaded with 100 μL of H2O2 Detection Solution, containing the respective treatment agent or controls and incubated for 60 min at 37° C. in the dark. Several wells were left without cells for the background fluorescence control measurements. Plates were read using Appliskan fluorescence microplate reader (Thermo Scientific) (ex=560 nm, Em=600). Data are expressed as the change in arbitrary fluorescence units produced from equal amount of cells and normalized to total protein input.
# [3] = tested on: Colo357; test: Viability of Colo357 cells under combination treatment (FIG. 8B); format: cell-based; details: Colo357 (high GSH), combination treatment with S-methyl 4-(dimethylamino)-4-methylpent-2-ynethioate
# [4] = tested on: cancer cells; test: Cell viability after exposure to pyocianin; format: cell-based, human; details: pyocianin 40 μM
# Method: Cells were seeded into 96-well cell culture plates at concentrations required to ensure approximately 80% confluence in control (untreated cells) at the end of experiment (0.5×10^4-5×10^4 cell/well). The sensitivity towards S-methyl 4-(dimethylamino)-4-methylpent-2-ynethioate was determined using different concentrations of the drug (from 0.01 to 100 μM). After 48 hours, the growth-inhibitory effect of the drug was analyzed using Rezasurin, according to manufactures instruction. To ensure good data quality and to minimize impact of pipetting errors, each particular drug concentration was assessed based on mean fluorescence intensity from 8 separate wells. The drug response was quantified by the half maximal inhibitory concentration (IC50) for each particular cell line, and determined by non-linear regression analysis of log-dose/response curves. Cut-off value for resistance to S-methyl 4-(dimethylamino)-4-methylpent-2-ynethioate was determined statistically (>2 S.D. above the IC50 geometric mean). The in-vitro threshold value for hypersensitivity to the drug has been defined as <IC50 geometric mean.
# In a different experiment, cells showing resistance to S-methyl 4-(dimethylamino)-4-methylpent-2-ynethioate (THP-1, HCC827, and Hop62) were challenged with H2O2 inducer. […]
# [5] = tested on: H2O2 levels; test: Measurement of H2O2 production after cell exposure to pyocianin; format: cell-based, human; details: pyocianin 40 μM
# Method: Measurement of H2O2 Production
# Intracellular H2O2 production in live cells was measured using Total ROS/superoxide detection kit (Enzo life science), following the manufacturer's instructions. The assay uses specific H2O2/RNS probes that upon reaction with H2O2 and RNS species are oxidized rapidly to highly fluorescent compounds. Fluorescence intensity is proportional to the total H2O2/RNS levels within the sample. […] The day before the analysis, cells were seeded in 96-well black/clear bottom plates at a density of 2×10^4 in culture media according to cell suppliers instructions, supplemented with FBS (10% v/v), 10 units of penicillin/ml and 100 […]. Cells were kept at 37° C. in a humid atmosphere of 95% air: 5% CO2 overnight. On the day of the analysis, cells media was replaced by 100 μL of phenol free-media supplemented as above, without any treatment, with S-methyl 4-(dimethylamino)-4-methylpent-2-ynethioate for 6 hours, vehicle HEPES for 6 hours, or with the different control agents PCN and NAC for 20 min. […] Several wells were left without cells for the background fluorescence control measurements. Plates were read using Appliskan fluorescence microplate reader (Thermo Scientific) (ex=560 nm, Em=600). Data are expressed as the change in arbitrary fluorescence units produced from equal amount of cells and normalized to total protein input.
# [6] = tested on: THP-1; test: Cell viability assay (Rezasurin), 96 well format; format: cell-based; details: Homo sapiens, 48 h
# [7] = tested on: HL-60, NT2/D1; test: Quantification of MDA and HNE adducts by ELISA in sensitive cells; format: cell-based, human; details: 5 or 10 μmol·L^−1, 24 hours
# Method: (§1) Quantitative Determination of FINE-Protein and MDA/Protein Adducts by ELISA
# (§2) The formation of HNE-adducts and MDA-adducts was quantified with the Oxiselect HNE Adduct Elisa kit (Cell Biolabs, San Diego, Calif.) and the OxiSelect MDA Adduct ELISA Kit (Cell Biolabs), respectively. Briefly, after a treatment with S-methyl 4-(dimethylamino)-4-methylpent-2-ynethioate during 24 hours, cells were lysed by sonication in reducing SDS Sample Buffer. Homogenates were diluted to 10 μg protein/mL and adsorbed in 96-well protein binding plates by incubation at 37° C. for at least 2 hours. Wells were washed twice with PBS and incubated for an additional 2 hours at room temperature on an orbital shaker. Following three washes in PBS, 100 μL of anti-HNE antibody or anti-MDA antibody were added to the wells and incubated for 1 hour at room temperature. Subsequently, goat anti-rabbit secondary antibody-HRP conjugate (diluted 1/1000 with the assay diluent) was added and incubation continued for 1 hour. Wells were washed five times in PBS and HRP-substrate was added. Reaction was stopped with an acidic solution, and absorbance read on a microplate reader at 450 nm. The level of HNE-adducts and of MDA-adducts was determined by comparison with a standard curve prepared from HNE-BSA and MDA-BSA standards supplied by the manufacturer.
# [8] = tested on: Hop62; test: Cell viability assay (Rezasurin), 96 well format; format: cell-based; details: Homo sapiens, HOP-62, 48 h, DIMATE alone or with PCN 40 μM, read-out: abs.IC50
# [9] = tested on: MSC; test: Quantification of MDA and HNE adducts by ELISA in resistant cells; format: cell-based; details: 5 or 10 μmol·L^−1, 24 hours
# Method: as §1, §2
# [10] = tested on: HCC827; test: Cell viability assay (Rezasurin), 96 well format; format: cell-based; details: Homo sapiens, 48 h, DIMATE alone or with PCN 40 μM, read-out: abs.IC50
smiles,measurement,setting,value
"CC(=O)N[C@@H](CS)C(=O)O [NAC, N-acetyl-L-cysteine]","rate constant, scavenging of hydroxy radicals",[1]; hydroxy radicals,"1.36×10^10 M^−1,s^−1"
same,reaction with superoxide anion,[1]; superoxide anion,no reaction
"COc1cccc2c1C(=O)c1c(O)c3c(c(O)c1C2=O)C[C@@](O)(C(=O)CO)C[C@@H]3O[C@H]1C[C@H](N)[C@H](O)[C@H](C)O1 [Doxo, Doxorubicin]",increase of H2O2 level,[2],10 000%
same,effect on viability,[3],no effect
"Cn1c2cccc(=O)c-2nc2ccccc21 [pyocianin, pyocyanin]",effect on cell viability,[4],without affecting cell viability
same,increase in H2O2 levels,[5],two-fold increase
"N.N.[Cl][Pt][Cl] [CPPD, Cisplatin]",increase of H2O2 level,[2],200%
same,effect on viability,[3],no effect
"CSC(=O)C#CC(C)(C)N(C)C [DIMATE, S-methyl 4-(dimethylamino)-4-methylpent-2-ynethioate]",IC50,"[6]; THP-1, DIMATE alone or with PCN 40 μM, read-out: abs.IC50",46 µM
same,IC50,"[6]; THP-1 resistant cells, DIMATE alone or with H2O2 inducer at fixed concentration (2-ME 100 μM, ATO 1 μM, Daunorubicine 40 nM, Doxorubicine 20 nM, Etoposide 500 nM, Mitoxanthrone 50 nM, Parthenolide 100 nM, Piperlongumine 2 μM), read-out: IC50",46 µM
same,HNE-adducts level,[7],> 1 μg per μg of total protein
same,MDA-adducts level,[7],above 100 ng per μg of total protein
same,IC50,[8],39 µM
same,HNE-adducts level,[9],< 1 μg per μg of total protein
same,MDA-adducts level,[9],< 100 ng per μg of total protein
same,IC50,[10],25 µM

# — patent US10406125B2, “Combination comprising an aminothiolester compound or a pharmaceutically acceptable salt thereof and a compound able to increase the H2O2 level in cancer cells of a subject” (ADVANCED BIODESIGN, priority 2015, dated 2019)
